Earlier results in patent publication US20230270707A1, “ORAL LIQUID PHARMACEUTICAL COMPOSITIONS OF ISOTRETINOIN” (IDRS Labs Private Limited, priority 2020, published 2023).
Where two headings read alike, the source gives them in different places.

Key:
[1] = target plasma level of isotretinoin ≥2 μM

CC1=C(/C=C/C(C)=C/C=C/C(C)=C\C(=O)O)C(C)(C)CCC1 [isotretinoin, 13-cis retinoic acid]
patients who achieved the target Cmax ([1]; drug extracted from capsules and mixed with food or given via nasogastric tube): 55% | patients who achieved the target Cmax ([1]; patients able to swallow the capsules): 92.5% | solubility in water: practically insoluble in water
